Experimental findings from patent publication US20140275063A1, “NEW ENZYME INHIBITOR COMPOUNDS” (PROXIMAGEN LIMITED, priority 2011, published 2014) are described below.

Structures are written as SMILES. Structures can show the parent of a compound that is named as a salt.

This test deals with T1, human SSAO (Homo sapiens, UniProt Q16853).
T1 construct: made in house
T1 sequence (Q16853 29-763 limits assumed): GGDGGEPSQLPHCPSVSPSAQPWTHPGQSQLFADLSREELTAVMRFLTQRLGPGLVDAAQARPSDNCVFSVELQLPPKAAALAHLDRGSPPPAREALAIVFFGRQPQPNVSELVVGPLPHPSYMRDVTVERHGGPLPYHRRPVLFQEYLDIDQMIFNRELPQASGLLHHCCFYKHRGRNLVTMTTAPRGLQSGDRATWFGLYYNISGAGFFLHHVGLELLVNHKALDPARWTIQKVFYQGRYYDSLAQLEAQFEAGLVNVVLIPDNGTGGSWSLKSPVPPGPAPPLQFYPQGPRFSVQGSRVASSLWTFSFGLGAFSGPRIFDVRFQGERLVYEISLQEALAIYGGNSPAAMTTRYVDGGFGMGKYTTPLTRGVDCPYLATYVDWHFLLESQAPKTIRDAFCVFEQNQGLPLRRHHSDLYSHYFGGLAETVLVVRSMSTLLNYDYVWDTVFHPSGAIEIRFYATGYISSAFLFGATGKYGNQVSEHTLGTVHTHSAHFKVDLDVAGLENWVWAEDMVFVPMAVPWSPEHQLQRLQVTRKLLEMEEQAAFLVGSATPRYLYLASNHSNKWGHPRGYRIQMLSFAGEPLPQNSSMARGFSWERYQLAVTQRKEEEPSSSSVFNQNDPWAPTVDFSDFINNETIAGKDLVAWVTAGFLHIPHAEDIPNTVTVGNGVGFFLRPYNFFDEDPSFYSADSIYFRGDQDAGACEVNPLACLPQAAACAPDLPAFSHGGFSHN
Kind of test: SSAO inhibitory activity (HRP-coupled hydrogen peroxide detection or 14C-benzaldehyde detection, benzylamine substrate). It counts as biochemical. Conditions: purified recombinantly expressed human SSAO, benzylamine as substrate, RT. On the procedure: All primary assays were performed at RT. with purified recombinantly expressed human SSAO. Enzyme was prepared essentially as described in Öhman et al. (Protein Expression and Purification 46 (2006) 321-331). In addition, secondary- and selectivity assays were performed using SSAO prepared from various tissues or purified rat recombinant SSAO. The enzyme activity was assayed with benzylamine as substrate by measuring either benzaldehyde production, using ^14C-labeled substrate, or by utilizing the production of hydrogen peroxide in a horseradish peroxidase (HRP) coupled reaction. Briefly, test compounds were dissolved in dimethyl sulfoxide (DMSO) to a concentration of 10 mM. Dose-response measurements were assayed by either creating 1:10 serial dilutions in DMSO to produce a 7 point curve or by making 1:3 serial dilutions in DMSO to produce 11 point curves. The top concentrations were adjusted depending on the potency of the compounds and subsequent dilution in reaction buffer yielded a final DMSO concentration ≦2%.
In a horseradish peroxidase (HRP) coupled reaction, hydrogen peroxide oxidation of 10-acetyl-3,7-dihydroxyphenoxazine produced resorufin, which is a highly fluorescent compound (Zhout and Panchuk-Voloshina. Analytical Biochemistry 253 (1997) 169-174; Amplex® Red Hydrogen Peroxideperoxidase Assay kit, Invitrogen A22188). Enzyme and compounds in 50 mM sodium phosphate, pH 7.4 were set to pre-incubate in flat-bottomed microtiter plates for approximately 15 minutes before initiating the reaction by addition of a mixture of HRP, benzylamine and Amplex reagent. Benzylamine concentration was fixed at a concentration corresponding to the Michaelis constant, determined using standard procedures. Fluorescence intensity was then measured at several time points during 1-2 hours, exciting at 544 nm and reading the emission at 590 nm. For the human SSAO assay final concentrations of the reagents in the assay wells were: SSAO enzyme 1 μg/ml, benzylamine 100 μM, Amplex reagent 20 μM, HRP 0.1 U/mL and varying concentrations of test compound. The inhibition was measured as % decrease of the signal compared to a control without inhibitor (only diluted DMSO). The background signal from a sample containing no SSAO enzyme was subtracted from all data points. Data was fitted to a four parameter logistic model and IC50 values were calculated using the Graph Pad Prism 4 or XLfit 4 programs.
SSAO activity was assayed using 14C-labeled benzylamine and analysed by measuring radioactive benzaldehyde. In a white 96-well optiplate (Packard), 20 μL of diluted test compound was pre-incubated at RT. with 20 μL SSAO enzyme for approximately 15 minutes with continuous agitation. All dilutions were made with PBS. The reaction was initiated by adding 20 μL of the benzylamine substrate solution containing [7-14C] Benzylamine hydrochloride (CFA589, GE Healthcare). The plate was incubated for 1 hour as above after which the reaction was stopped by acidification (10 μL 1 M HCl). Then 90 μL Micro Scint-E solution (Perkin-Elmer) was added to each well and the plate was continuously mixed for 15 minutes. Phase separation occurred instantly and activity was read in a Topcount scintillation counter (Perkin-Elmer). In the final reaction well, the human recombinant SSAO concentration was 10 μg/ml. In order to optimize sensitivity, the substrate concentration was decreased as compared to the HRP coupled assay in order to get a higher fraction of radioactive product. In the human SSAO assay, benzylamine concentration was 40 μM (0.2 μCi/mL). Data was analysed as above.
Regarding `Clc1ccc(-n2cc(C3CCN(C4CCNC4)CC3)c3ccncc32)cc1` (centres unmarked) [Compound 1, 4-[1-(4-Chlorophenyl)-1H-pyrrolo[2,3-c]pyridin-3-yl]-1-(pyrrolidin-3-yl)piperidine], the IC50 is under 100 nM.
`NC(=O)NCC1CN(c2nn(-c3ccc(Cl)cc3)c3cnccc23)CCO1` (centres unmarked) [Compound 59, ({4-[1-(4-Chlorophenyl)-1H-pyrazolo[3,4-c]pyridin-3-yl]morpholin-2-yl}methyl)urea]: the IC50 was under 100 nM.
`O=C(NCCN1CCOCC1)N1CCC(c2cn(-c3ccc(Cl)cc3)c3cnccc23)CC1` [Compound 22, 4-[1-(4-Chlorophenyl)-1H-pyrrolo[2,3-c]pyridin-3-yl]-N-[2-(morpholin-4-yl)ethyl]piperidine-1-carboxamide]: the IC50 is under 100 nM.
In the case of `CN1CCN(CCNc2nn(-c3ccc(Cl)cc3)c3cnccc23)CC1` [Compound 46, 1-(4-Chlorophenyl)-N-[2-(4-methylpiperazin-1-yl)ethyl]-1H-pyrazolo[3,4-c]pyridin-3-amine], the IC50 was in the range of 100 to 500 nM.
The same measure for `CN1CCC(CNC(=O)N2CCN(c3nn(-c4ccc(Cl)cc4)c4cnccc34)CC2)CC1` [Compound 51, 4-[1-(4-Chlorophenyl)-1H-pyrazolo[3,4-c]pyridin-3-yl]-N-[(1-methylpiperidin-4-yl)methyl]piperazine-1-carboxamide]: under 100 nM; for `Cc1ccc(-n2nc(N3CCOC(CNCCN)C3)c3ccncc32)cc1` (centres unmarked) [Compound 33, (2-Aminoethyl)({4-[1-(4-methylphenyl)-1H-pyrazolo[3,4-c]pyridin-3-yl]morpholin-2-yl}methyl)amine trihydrochloride]: 100 to 500 nM; for `CCN1CCC(CNC(=O)N2CCC(c3cn(-c4ccc(Cl)cc4)c4cnccc34)CC2)CC1` [Compound 12, 4-[1-(4-Chlorophenyl)-1H-pyrrolo[2,3-c]pyridin-3-yl]-N-[(1-ethylpiperidin-4-yl)methyl] piperidine-1-carboxamide]: under 100 nM.
The same measure for `Cc1ccc(-n2nc(N3CCOC(CN4CCOCC4)C3)c3ccncc32)cc1` (centres unmarked) [Compound 34, 4-[1-(4-Methylphenyl)-1H-pyrazolo[3,4-c]pyridin-3-yl]-2-(morpholin-4-ylmethyl)morpholine]: 100 to 500 nM.
For `O=C(NCCN1CCNCC1)N1CCC(c2cn(-c3ccc(Cl)cc3)c3cnccc23)CC1` [Compound 23, 4-[1-(4-Chlorophenyl)-1H-pyrrolo[2,3-c]pyridin-3-yl]-N-[2-(piperazin-1-yl)ethyl] piperidine-1-carboxamide], the IC50 is under 100 nM.
As to `Cc1ccc(-n2nc(N3CCOC(CNC(=O)NC4CC4)C3)c3ccncc32)cc1` (centres unmarked) [Compound 31, 3-Cyclopropyl-1-({4-[1-(4-methylphenyl)-1H-pyrazolo[3,4-c]pyridin-3-yl]morpholin-2-yl}methyl)urea], the IC50 is under 100 nM.
On to `CC(=O)NCCCNC(=O)N1CCC(c2cn(-c3ccc(Cl)cc3)c3cnccc23)CC1` [Compound 29, N-[3-({4-[1-(4-Chlorophenyl)-1H-pyrrolo[2,3-c]pyridin-3-yl]piperidin-1-yl}carbonylamino)propyl]acetamide], for which the IC50 was under 100 nM.
As to `CN(C)[C@H]1CCN(C(=O)CC2COCCN2c2nn(-c3ccc(Cl)cc3)c3cnccc23)C1` (stereo partly drawn) [Compound 56, 2-{4-[1-(4-Chlorophenyl)-1H-pyrazolo[3,4-c]pyridin-3-yl]morpholin-3-yl}-1-[(3S)-3-(dimethylamino)pyrrolidin-1-yl] ethan-1-one], the IC50 is under 100 nM.
Consider `CN1CCN(CCC2COCCN2c2nn(-c3ccc(Cl)cc3)c3cnccc23)CC1` (centres unmarked) [Compound 42, 4-[1-(4-Chlorophenyl)-1H-pyrazolo[3,4-c]pyridin-3-yl]-3-[2-(4-methylpiperazin-1-yl)ethyl]morpholine], for which the IC50 was under 100 nM.
Take `CN1CCC(CNC(=O)C2CCCCN2c2nn(-c3ccc(Cl)cc3)c3cnccc23)CC1` (centres unmarked) [Compound 43, 1-[1-(4-Chlorophenyl)-1H-pyrazolo[3,4-c]pyridin-3-yl]-N-[(1-methylpiperidin-4-yl)methyl]piperidine-2-carboxamide]: the IC50 lay in the range of 100 to 500 nM.
For `Clc1ccc(-n2nc(N3CCOC(CN4CCNCC4)C3)c3ccncc32)cc1` (centres unmarked) [Compound 36, 4-[1-(4-Chlorophenyl)-1H-pyrazolo[3,4-c]pyridin-3-yl]-2-(piperazin-1-ylmethyl) morpholine trihydrochloride], the IC50 was under 100 nM.
As to `CC(=O)N1CCC(NC(=O)N2CCC(c3cn(-c4ccc(Cl)cc4)c4cnccc34)CC2)CC1` [Compound 10, N-(1-Acetylpiperidin-4-yl)-4-[1-(4-chlorophenyl)-1H-pyrrolo [2,3-c]pyridin-3-yl]piperidine-1-carboxamide], the IC50 is under 100 nM.
Take `CN1CCC(NC(=O)N2CCC(c3cn(-c4ccc(Cl)cc4)c4cnccc34)CC2)CC1` [Compound 8, 4-[1-(4-Chlorophenyl)-1H-pyrrolo[2,3-c]pyridin-3-yl]-N-(1-methylpiperidin-4-yl)piperidine-1-carboxamide]: the IC50 is under 100 nM.
The result for `O=C(NCC1CCNCC1)N1CCC(c2cn(-c3ccc(Cl)cc3)c3cnccc23)CC1` [Compound 6, 4-[1-(4-Chlorophenyl)-1H-pyrrolo[2,3-c]pyridin-3-yl]-N-(piperidin-4-ylmethyl)piperidine-1-carboxamide] reads under 100 nM; that for `O=C(NC1CCNCC1)N1CCC(c2cn(-c3ccc(Cl)cc3)c3cnccc23)CC1` [Compound 7, 4-[1-(4-Chlorophenyl)-1H-pyrrolo[2,3-c]pyridin-3-yl]-N-(piperidin-4-yl) piperidine-1-carboxamide], under 100 nM; that for `O=C1NCCN1CCNc1nn(-c2ccc(Cl)cc2)c2cnccc12` [Compound 64, 1-(2-{[1-(4-Chlorophenyl)-1H-pyrazolo[3,4-c]pyridin-3-yl]amino}ethyl)imidazolidin-2-one], under 100 nM.
The same measure for `Clc1ccc(-n2cc(C3CCN(C4CCNCC4)CC3)c3ccncc32)cc1` [Compound 2, 4-[1-(4-Chlorophenyl)-1H-pyrrolo[2,3-c]pyridin-3-yl]-1-(piperidin-4-yl)piperidine]: 100 to 500 nM; for `CN1CCC(CCNC(=O)N2CCC(c3cn(-c4ccc(Cl)cc4)c4cnccc34)CC2)CC1` [Compound 24, 4-[1-(4-Chlorophenyl)-1H-pyrrolo[2,3-c]pyridin-3-yl]-N-[2-(1-methylpiperidin-4-yl)ethyl] piperidine-1-carboxamide]: under 100 nM; for `COCCN1CCN(C(=O)N2CCC(c3cn(-c4ccc(Cl)cc4)c4cnccc34)CC2)CC1` [Compound 18, 1-({4-[1-(4-Chlorophenyl)-1H-pyrrolo[2,3-c]pyridin-3-yl]piperidin-1-yl}carbonyl)-4-(2-methoxyethyl) piperazine]: under 100 nM.

The IC50 is the concentration needed to halve the response being measured.
